“Also recorded” adds a separate entry of the source. No end group written: not given here.
Legend:
[1] = system: DIO mice; assay: CST administration to DIO mice for 16 days; type: in vivo
Experimental: FIG. 7. Effects of CST administration to DIO and Ob/Ob mice on food intake, body weight, adipose tissue weight, and lipolysis. CST (5 μg/g BW, i.p./day) or saline was administered to DIO and Ob/Ob mice for 16 days. Food intake for DIO mice (A) and Ob/Ob mice (B) was measured every other day. Percent changes in final body weight and WAT mass (as % of body weight) were determined for DIO (C) and Ob/Ob (D) mice. Plasma glycerol (E) and NEFA (F) were quantified for DIO and Ob/Ob mice at the end of CST treatment.
Adult male (7 month old) WT (31.8±1.2 g) and Chga-KO (39.2±1.5 g) mice in the mixed genetic background (129SvJ×C57BL/6) were studied. Both genotypes were generated from the original founder carrying mixed genotype (50% 129SvJ, 50% C57BL/6) and were maintained by sibling mating. Animals were kept in a 12 hr dark/light cycle and fed standard chow ad libitum. Male C57BL/6 mice, 8 week old, were fed 60% high fat diet (D12492: Research Diets, Inc., New Brunswick) for 16 weeks before using for experiments. Male leptin-deficient (C57BL/6J-Ob/Ob) mice from the Jackson Laboratory were maintained on a standard chow diet. The Institutional Animal Care and Utilization Committee approved all procedures. Chga-KO, DIO and Ob/Ob mice were treated daily with saline or CST (5 μg/g BW, i.p.; 12 days for Chga-KO mice and 16 days for DIO and Ob/Ob mice).
Mice were fasted for 12 hr prior to blood draw. Triglycerides (TG) and non-esterified fatty acids (NEFA) were assayed using kits from Wako Diagnostics (Richmond, Va.). Glycerol was assayed using a kit from Sigma (St Louis, Mo.). Media from the explant cultures and mouse serum were analysed for glycerol and NEFA as a measure of lipolysis. ELISA kits were used to determine plasma levels of leptin, adiponectin (Millipore, Billerica, Mass.) and CST (Bachem, Torrance, Calif.). For CST assay, plasma samples and reference standards were passed through mini C18 columns and the flow-through fractions were assayed. The same kits were used for measurements in culture media.

[2] = system: HFD-fed Chga-KO mice; assay: Peptide supplementation to HFD-fed Chga-KO mice (insulin sensitivity); type: in vivo; details: HFD (60%)-fed Chga-KO mice
[3] = system: 3T3-L1 adipocytes; assay: cAMP production in 3T3-L1 adipocytes; type: cell-based; details: CST 100 nM, ISO 10 μM, 10 min
[4] = system: HFD-fed CST-KO mice; assay: CST supplementation in HFD-fed CST-KO mice; type: in vivo
Description: FIG. 12. Metabolic phenotypes in HFD-fed CST-KO mice. (A) CST-KO mice eat more 60% HFD than WT. (B) CST-KO mice gained more weight than WT. (C) Heightened glucose resistance at baseline in CST-KO mice compared to WT mice. […] Figures in parentheses indicate number of animals.

[5] = system: adipose tissue explants from Ob/Ob mice; assay: Lipolysis and fatty acid oxidation in adipose explants of Ob/Ob mice; type: cell-based
Experimental: FIG. 8. Lipolysis and fatty acid oxidation in the adipose tissue explants of DIO and Ob/Ob mice after treatment with saline or CST for 16 days. Explants were incubated with saline or leptin (1 μM) for 3 hr and the concentrations of glycerol (A&C) and NEFA (B&D) released into the media from DIO (A&B) and Ob/Ob (C&D) explants were determined as a measure of lipolysis. Homogenates of the explants from DIO (E) and Ob/Ob […] were used to determine their capacity for oxidation of U-^14C-palmitate in response to the treatment with saline, CST, leptin and CST+leptin. The ^14CO2 released was captured and counted as the measure of fatty acid oxidation.
(§1) Adipose tissue explants were prepared as described (42). Epididymal fat pads from 12 hr fasted WT, Chga-KO, DIO and Ob/Ob mice with or without CST treatment were collected in Kreb-Ringer-phosphate (KRP) buffer containing 10 mM Hepes and 0.5% BSA. Tissues were minced to 1-2 mm size and treated with 100 nM CST, 1 μM leptin, or saline for 30 min (for signaling analysis) or 3 hr (for lipolysis and β-oxidation assays). Explants were also treated acutely with CST, leptin, a combination, or saline. At the end, incubation media were saved for analysis of glycerol and fatty acid release. Explants were washed prior to homogenization for immunoblotting and analysis of fatty acid oxidation.
Oxidation of radiolabeled palmitate in the homogenates of adipose tissue explants as described previously (45). For oxidation studies of cultured cells, HepG2 (hepatocytes) and 3T3-L1 preadipocytes were obtained from ATCC and cultured following supplier's protocol. Confluent 3T3-L1 cultures were differentiated into adipocytes by treating with a cocktail of dexamethasone (100 nM), IBMX ([…]) and insulin (100 nM) for 10 days. Media were then switched to serum-free DMEM with 1% BSA. Hepatocytes were assayed for lipogenesis and fat oxidation in response to CST treatment. Serum-free cultures were treated with CST (100 nM) for 24 hr followed by a 2 hr incubation with U^14C-palmitate (0.5 μCi/ml). Fatty acid oxidation in cells was determined by modifying a published method (46). Specifically, the culture media in 24-well plates were acidified with 10% HClO4 after incubation with the labeled fatty acid and immediately covered with a thick filter paper sheet (cut to size) soaked in 2 N NaOH and placed underneath the plastic lid. The whole plate was sealed with parafilm. After further incubation for 2 hr, the filter paper sheet was marked as circles around the rim of the wells and then the circles were excised. The filter discs were counted to determine the amount of ^14CO2 absorbed in the papers. Cells in the culture wells were lysed in 1 N NaOH and protein content was assayed using Folin's reagent (BioRad, Hercules, Calif.).

[6] = reference (8); cited from earlier work
[7] = system: STAT3 and AMPK phosphorylation; assay: Stat3 and AMPK signaling in adipose explants from DIO mice; type: cell-based; details: CST in vivo, leptin 1 μM ex vivo 30 min
Experimental: FIG. 9. Stat3 and AMPK signaling in the adipose tissue explants from DIO and Ob/Ob mice treated with saline, CST (in vivo) and leptin (ex vivo). Explants from DIO mice (A&B) and Ob/Ob mice (C&D) were incubated with saline or leptin (1 μM) for 30 min, homogenized and immunoblotted for phospho- and total Stat3 (A&C) as well as phospho- and total AMPK signals (B&D). Results are presented as the ratio of signal strength of phospho-over total.
as §1
Adipose tissue explants after treatments ex vivo and tissues from mice treated in vivo were homogenized in a buffer containing phosphatase and protease inhibitors (20 mM Tris/HCl (pH 7.5), 250 mM sucrose, 2 mM EDTA, 2 mM EGTA, 2 mM Na3VO4, 10 mM NaF, 2 mM Na4P2O7, 1 mM phenylmethylsulfonyl fluoride, 20 μg/ml leupeptin, 10 μg/ml aprotinin, and 1 μM LR-microcystin) as described (38,44). Homogenates were subjected to SDS-PAGE and immunoblotted. Primary antibodies for AMPK and Stat3 were from Cell Signaling Technology (Beverly, Mass.). The chemiluminescence kit was from Pierce (Rockford, Ill.).

SSMKLSFRARAYGFRGPGPQL [CST]
food intake ([1]; CST 5 μg/g BW i.p./day 16 days): did not change
decrease in adipose tissue mass ([1]; CST 16 days): about 2 g
plasma concentration of NEFA (lipolysis) ([1]; CST 16 days): increased
plasma concentration of glycerol (lipolysis) ([1]; CST 16 days): increased
insulin sensitivity (GTT) [2]: made HFD-fed Chga-KO mice sensitive to insulin
cAMP production [3]: not by CST
basal plasma insulin level [4]: decreased; also recorded: reduced hyperinsulinemia
insulin sensitivity (IP-ITT) ([4]; CST 5 μg/g BW): improved insulin sensitivity; also recorded: reversed glucose resistance to glucose tolerance
palmitate oxidation [5]: not CST alone
lipolysis (glycerol and NEFA release) ([5]; CST in vivo 16 days, leptin 1 μM ex vivo 3 hr): did not influence lipolysis
protease degradation [6]: susceptible to complete protease degradation
AMPK phosphorylation [7]: not AMPK phosphorylation
STAT3 phosphorylation [7]: stimulated only STAT3 phosphorylation

— US9572862B2, “Methods for promoting lipolysis and oxidation in liver and adipose tissue using catestatin” (The Regents of the University of California, priority 2012, dated 2017)
